# Assay results: patent US20060014723A1, “Anti-parasitic uses of borinic acid complexes” (priority 2004, published 2006)
# Test system: P. Berghei
# Assay: In vivo efficacy mouse malaria model
# Details: 1×/day
# Experimental: Test compounds will be compared to chloroquine, artemisinin, mefloquine as follows: NMRI mice, SPF, females, […]
# From a donor mouse with approximately 30% parasitemia, heparinized blood is taken and diluted in physiological saline to 10^8 parasitized erythrocytes per mL. An aliquot of 0.2 mL (=2×10^7 parasitized erythrocytes) of this suspension is injected intravenously (i.v.) into experimental groups of 4 mice.
# Two-to-four hours post-infection, the experimental groups are treated with a single dose by the subcutaneous or the oral route. The compounds are prepared at an appropriate concentration, as a solution or suspension containing 3% ethanol and 7% Tween 80 or in SSV (standard suspending vehicle): […]
# Twenty-four hours after the last treatment ([…]) blood smears from all animals are prepared and stained with Giemsa. Parasitemia is determined microscopically by counting 400 red blood cells (“rbcs”), for low parasitemias (<1%) up to 4,000 rbc's have to be counted. The difference between the mean value of the control group (taken as 100%) and those of the experimental groups is calculated and expressed as % Reduction where: [formula]
# Additional smears will be taken on day 5 and day 6; and parasitemia will be determined and the activity calculated. Survival time (in days) is recorded, and the mean survival time is calculated. Adverse effects are recorded. Four mice/compound and a minimum of 12 mice/study (vehicle and positive controls run concurrently) are used.
smiles,measurement,setting,value
"Fc1cccc(B(Oc2cccc3cccnc23)c2ccc(Cl)cc2)c1 [Compound 11, (4-Chlorophenyl)(3-fluorophenyl) borinic acid quinolin-8-yl ester]",% of Activity,"4 × 30 mg/kg, s.c.",42.46%
same,Mean Survival,"4 × 30 mg/kg, s.c.",19.7 days
same,Parasitized RBC over 100 % of Control,"4 × 30 mg/kg, s.c.",57.54%
same,Parasitized RBC over 100 Mean,"4 × 30 mg/kg, s.c.",14.3
same,% of Activity,"4 × 100 mg/kg, p.o.",58.22%
same,Mean Survival,"4 × 100 mg/kg, p.o.",15.0 days
same,Parasitized RBC over 100 % of Control,"4 × 100 mg/kg, p.o.",41.78%
same,Parasitized RBC over 100 Mean,"4 × 100 mg/kg, p.o.",10.4
